Data as given in PubChem BioAssay (NCI).
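Step 1: Grow cells in 96-well plates. Step 2: Expose to compound for 48 hours at 5 concentrations. Step 3: Interpolate endpoints linearly; if unreached, use highest concentration. Definition used: TGI = concentration required for complete inhibition of growth.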

What was measured:
Assay in all cases: NCI anticancer screen, dose series, 48 h
[1] = system: 786-0 renal
[2] = system: A549 NSCLC
[3] = system: ACHN renal
[4] = system: BT-549 breast
[5] = system: CAKI-1 renal
[6] = system: CCRF-CEM leukemia
[7] = system: COLO 205 colon
[8] = system: DU-145 prostate
[9] = system: EKVX NSCLC
[10] = system: HCC-2998 colon
[11] = system: HCT-116 colon
[12] = system: HCT-15 colon
[13] = system: HL-60(TB) leukemia
[14] = system: HOP-62 NSCLC
[15] = system: HS 578T breast
[16] = system: HT29 colon
[17] = system: IGROV1 ovarian
[18] = system: K-562 leukemia
[19] = system: KM12 colon
[20] = system: LOX IMVI melanoma
[21] = system: M14 melanoma
[22] = system: MCF7 breast
[23] = system: MDA-MB-231 breast
[24] = system: MDA-MB-435
[25] = system: MOLT-4 leukemia
[26] = system: NCI-H226 lung
[27] = system: NCI-H23 lung
[28] = system: NCI-H460 lung
[29] = system: NCI-H522 lung
[30] = system: NCI/ADR-RES ovarian
[31] = system: OVCAR-3 ovarian
[32] = system: OVCAR-4 ovarian
[33] = system: OVCAR-8 ovarian
[34] = system: PC-3 prostate
[35] = system: RXF 393 renal
[36] = system: SF-268 CNS
[37] = system: SF-295 CNS
[38] = system: SF-539 CNS
[39] = system: SK-MEL-28 melanoma
[40] = system: SK-MEL-5 melanoma
[41] = system: SK-OV-3 ovarian
[42] = system: SN12C renal
[43] = system: SNB-19 CNS
[44] = system: SNB-75 CNS
[45] = system: SR leukemia
[46] = system: SW-620 colon
[47] = system: T-47D breast
[48] = system: TK-10 renal
[49] = system: U251 CNS
[50] = system: UACC-257 melanoma
[51] = system: UACC-62 melanoma
[52] = system: UO-31 renal

Measured: TGI

O=C1OCC2=Nc3cccc4cccc(c34)N12
> 100 µM: [1] | [2] | [3] | [4] | [5] | [6] | [7] | [8] | [9] | [10] | [11] | [12] | [13] | [14] | [15] | [16] | [17] | [18] | [19] | [20] | [21] | [22] | [23] | [24] | [25] | [26] | [27] | [28] | [29] | [30] | [31] | [32] | [33] | [34] | [35] | [36] | [37] | [38] | [39] | [40] | [41] | [42] | [43] | [44] | [45] | [46] | [47] | [48] | [49] | [50] | [51] | [52]
